The text below walks through data of the NIST ThermoML archive (doi:10.1016/j.jct.2007.03.007).

The conditions of data set [1]: Liquid; for mass density: 101.33 kPa.
Data set [2] is described as follows: refractive index (Na D-line) (dimensionless). As to conditions: 101.33 kPa, Liquid, Standard Abbe refractometry.
Where [3] appears, read: 298.15 K, Vibrating tube method.

SMILES strings stand for the structures. Numbers after ± are expanded uncertainties.

`CC(=O)CC(C)=O` [2,4-pentanedione]: in data set [1] (setting [3]), the mass density stood at 972 ± 2 kg/m3. Also, the “vapor or sublimation pressure” value in data set [1] (409.35 K) worked out at 95.5 ± 4 kPa. Besides, the refractive index in data set [2] (293.15 K) turned out to be 1.4511 ± 0.0008.
On to `COC(C)(C)C` [2-methoxy-2-methylpropane], for which the mass density in data set [1] (303.15 K, Vibrating tube method) was 742 ± 2 kg/m3. The “vapor or sublimation pressure” value in data set [1] (326.45 K) was found to be 95.5 ± 4 kPa. For the same compound, in data set [2] (293.15 K), the refractive index amounted to 1.369 ± 0.0008.
Turning to `CC#N` [acetonitrile], the mass density in data set [1] (298.15 K) was determined as 776.5 ± 2 kg/m3. Further, the “vapor or sublimation pressure” value in data set [1] (352.15 K) and in data set [1] (352.55 K) was 95.5 ± 4 kPa each time. In addition, the refractive index in data set [2] (298.15 K) is given as 1.3416 ± 0.0008.
Regarding `COc1ccccc1` [anisole], in data set [1] (setting [3]), the mass density is listed as 989.3 ± 2 kg/m3. Besides, the “vapor or sublimation pressure” value in data set [1] (424.65 K) was determined as 95.5 ± 4 kPa. Further, the refractive index in data set [2] (298.15 K) worked out at 1.5142 ± 0.0008.
In the case of `Brc1ccccc1` [bromobenzene], the mass density in data set [1] (setting [3]) turned out to be 1488.3 ± 2 kg/m3. For the same compound, the “vapor or sublimation pressure” value in data set [1] (427.05 K) worked out at 95.5 ± 4 kPa. Besides, the refractive index in data set [2] (298.15 K) came to 1.5571 ± 0.0008.
Take `CC(C)O` [propan-2-ol]: in data set [1] (setting [3]), the mass density is 781.3 ± 2 kg/m3. In addition, the “vapor or sublimation pressure” value in data set [1] (354.05 K) stood at 95.5 ± 4 kPa. Besides, in data set [2] (298.15 K), the refractive index stood at 1.3751 ± 0.0008.
In the case of `CCO[Si](OCC)(OCC)OCC` [tetraethoxysilane], the mass density in data set [1] (setting [3]) amounted to 933.4 ± 2 kg/m3. Also, the “vapor or sublimation pressure” value in data set [1] (439.55 K) is given as 95.5 ± 4 kPa. Further, in data set [2] (298.15 K), the refractive index worked out at 1.3825 ± 0.0008.

One may read the mass density as the mass of a sample divided by its volume. What is called vapor or sublimation pressure is the equilibrium pressure above the liquid or solid. What is called refractive index is a measure of how strongly the sample bends light.
